Test results as given in patent US20250376484A1, “PRMT5 INHIBITORS AND USES THEREOF” (Gilead Sciences, Inc., priority 2024, published 2025).

Columns and labels:
[1] = system: HCT116 MTAP-deleted cell lines; assay: Cell viability assay (CellTitre-Glo), HCT116 MTAP-deleted; assay type: cell-based; conditions: for CC50: Homo sapiens, HCT-116, 168 h, HCT116 MTAP-deleted cells, 7 days of treatment, CTG luminescence, read-out: MTAP^del HCT116 CC50; for Selectivity: WT HCT116 CC50 versus MTAP^del HCT116 CC50
Experimental: (§1) Control compounds were analyzed in parallel each time for quality control.
(§2) In Brief, on Day-1, a serial dilution of stock compounds in DMSO was performed using BioMek liquid handlers and dispensed using Echo acoustic dispenser into 384 well plates. Both tool compounds and sample compounds were spotted in the same plate for a dose response of PRMT5 inhibitors. Compound plates were stored as frozen until the cells were ready for seeding.
(§3) On Day 0, 100 HCT WT or HCT116 MTAP-deleted cells were seeded in compound-containing 384 well plates (50 μl per well) in RPMI 1640 media supplemented with 10% heat inactivated fetal bovine serum, Glutamax and penicillin streptomycin using EL460 liquid dispenser 5 μl cassette (BioTek, part no. 7170011). After equilibrating the plate in room temperature, the cells were incubated for 7 days inside the sealed incubator set at 37° C. with […] and 5% CO2.
(§4) On Day 7, the viability of cells was measured using a CTG assay kit (CellTitre-Glo; Promega cat no. G7573). Shortly, 40 μl per well of luminescent cell viability assay reagent were dispensed using EL460 liquid dispenser 5 μl cassette. CTG luminescence signal was measured using an EnVision plate reader (PerkinElmer) in accordance with manufacturer's instruction. The CC50 values for each compound after 7 days of treatment were calculated using 4 parameter non-linear logistical curve fit.

MDR1 = molecular target: T1, MDR1 (Homo sapiens, UniProt P08183); assay: MDR1/BCRP assay: efflux ratio in cPgp-KO-MDR1-KI cells; assay type: in vitro ADME; conditions: dog, MDCK-MDR1, efflux ratio Papp (B-to-A)/Papp (A-to-B), 2-hour time point, read-out: cPgp-KO-MDR1-KI (ER)
T1 construct: host or cells: MDCK cells with canine Pgp knocked out and MDR1 knocked in (cPgp-KO-MDR1-KI)
T1 sequence (P08183 whole entry): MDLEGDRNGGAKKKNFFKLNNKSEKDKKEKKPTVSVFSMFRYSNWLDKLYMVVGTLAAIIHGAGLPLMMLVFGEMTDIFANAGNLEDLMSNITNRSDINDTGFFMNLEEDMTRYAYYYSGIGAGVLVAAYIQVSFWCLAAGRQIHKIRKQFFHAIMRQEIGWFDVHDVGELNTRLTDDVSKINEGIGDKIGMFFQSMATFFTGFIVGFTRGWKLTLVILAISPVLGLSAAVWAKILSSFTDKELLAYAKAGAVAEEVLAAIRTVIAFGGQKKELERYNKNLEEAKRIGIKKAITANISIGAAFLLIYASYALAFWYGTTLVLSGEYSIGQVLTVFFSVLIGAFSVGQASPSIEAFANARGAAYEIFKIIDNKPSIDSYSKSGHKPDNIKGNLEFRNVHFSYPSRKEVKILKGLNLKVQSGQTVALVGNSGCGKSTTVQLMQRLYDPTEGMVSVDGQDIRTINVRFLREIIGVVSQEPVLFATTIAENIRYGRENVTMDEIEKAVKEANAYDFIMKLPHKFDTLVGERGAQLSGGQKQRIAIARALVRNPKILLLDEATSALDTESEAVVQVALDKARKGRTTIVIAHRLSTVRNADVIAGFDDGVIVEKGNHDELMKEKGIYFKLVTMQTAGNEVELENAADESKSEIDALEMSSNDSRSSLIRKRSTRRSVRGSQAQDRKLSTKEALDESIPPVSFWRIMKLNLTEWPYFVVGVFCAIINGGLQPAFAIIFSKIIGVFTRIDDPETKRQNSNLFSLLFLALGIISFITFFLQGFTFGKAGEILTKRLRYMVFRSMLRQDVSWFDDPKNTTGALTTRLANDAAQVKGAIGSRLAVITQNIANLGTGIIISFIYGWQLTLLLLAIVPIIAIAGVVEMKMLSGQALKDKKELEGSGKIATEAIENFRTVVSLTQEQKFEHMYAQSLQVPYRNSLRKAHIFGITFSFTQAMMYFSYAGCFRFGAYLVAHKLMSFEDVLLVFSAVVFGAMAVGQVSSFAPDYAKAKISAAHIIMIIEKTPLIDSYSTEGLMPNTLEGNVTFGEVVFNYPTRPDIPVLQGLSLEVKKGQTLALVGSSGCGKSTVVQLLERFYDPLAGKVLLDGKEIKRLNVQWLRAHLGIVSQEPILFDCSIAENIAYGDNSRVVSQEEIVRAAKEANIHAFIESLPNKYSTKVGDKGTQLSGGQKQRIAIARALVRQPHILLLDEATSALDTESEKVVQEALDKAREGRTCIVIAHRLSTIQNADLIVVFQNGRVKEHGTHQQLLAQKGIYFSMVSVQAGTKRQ
Experimental: (§5) cPgp-KO-MDCK-WT, cPgp-KO-MDR1-KI, and cPgp-KO—BCRP—KI cells (all from Sigma) were cultured in Dulbecco's Modification of Eagle's Medium (DMEM) with 4.5 g/L glucose, sodium pyruvate, and GlutaMAX (Gibco) supplemented with 1% Pen/Strep and 10% fetal bovine serum. The cells were maintained in an incubator at 37° C., 90% humidity, and 5% CO2 until reaching confluence over 5 days in 96-well transwell plates. Experiments were conducted using an HBSS donor buffer (Invitrogen) containing 10 mM HEPES and 15 mM glucose, adjusted to pH 7.4. The receiver well contained HBSS buffer supplemented with 1% BSA, 10 mM HEPES, and 15 mM glucose, and the pH was adjusted to 7.4. TEER values were measured to assess membrane integrity after an initial equilibration with BSA-free transport buffer for 15 minutes. The experiment was started by adding dosing solutions containing test compounds at 1 μM. Cells were dosed on the apical (A) side or basolateral (B) side at 100 μl and 200 μl, respectively, to determine forward (A to B) and reverse (B to A) permeability. At the 2-hour time point, 50 μl samples were collected from the receiver compartment. Each compound was tested in 2 separate replicate wells for each condition. All samples were immediately collected into plates, and 50 μL of acetonitrile was added. Subsequently, 350 μl of 30:70 methanol: acetonitrile containing internal standard was added to precipitate proteins and stabilize the test compounds. To test for non-specific binding and compound instability, the total amount of the drug was quantified at the end of the experiment and compared to the material present in the original dosing solution as a percentage of the recovery. All samples were analyzed by LC-MS/MS using electrospray ionization.
(§6) The apparent permeability, Papp, and % recovery were calculated as follows: […]

[2] = MDR1/BCRP assay: permeability in cPgp-KO-MDCK-WT cells; assay type: in vitro ADME; conditions: dog, test compounds at 1 μM, 2-hour time point, pH 7.4
Experimental: as §5, §6

BCRP = molecular target: T2, BCRP (Homo sapiens, UniProt Q9UNQ0); assay: MDR1/BCRP assay: efflux ratio in cPgp-KO-BCRP-KI cells; assay type: in vitro ADME; conditions: dog, efflux ratio Papp (B-to-A)/Papp (A-to-B), 2-hour time point, read-out: cPgp-KO-BCRP-KI (ER)
T2 construct: host or cells: MDCK cells with canine Pgp knocked out and BCRP knocked in (cPgp-KO-BCRP-KI)
T2 sequence (Q9UNQ0 1-655): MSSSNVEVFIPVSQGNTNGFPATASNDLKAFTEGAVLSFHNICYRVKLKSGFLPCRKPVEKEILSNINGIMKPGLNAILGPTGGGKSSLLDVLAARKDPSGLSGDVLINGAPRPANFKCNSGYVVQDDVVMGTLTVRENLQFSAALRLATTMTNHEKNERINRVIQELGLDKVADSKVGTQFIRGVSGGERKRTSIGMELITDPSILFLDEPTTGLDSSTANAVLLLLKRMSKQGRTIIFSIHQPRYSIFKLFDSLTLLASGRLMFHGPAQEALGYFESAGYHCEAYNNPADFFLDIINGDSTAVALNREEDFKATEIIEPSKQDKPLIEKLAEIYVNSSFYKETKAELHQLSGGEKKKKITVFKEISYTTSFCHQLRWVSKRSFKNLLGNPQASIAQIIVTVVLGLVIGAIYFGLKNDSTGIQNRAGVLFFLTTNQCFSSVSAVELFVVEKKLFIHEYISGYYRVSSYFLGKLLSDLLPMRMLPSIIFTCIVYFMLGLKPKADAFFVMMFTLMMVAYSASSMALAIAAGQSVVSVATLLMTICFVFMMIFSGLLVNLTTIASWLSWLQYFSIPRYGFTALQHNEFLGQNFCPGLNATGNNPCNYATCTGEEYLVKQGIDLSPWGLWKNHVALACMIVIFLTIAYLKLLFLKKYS
Experimental: as §5, §6

[3] = Cell viability assay (CellTitre-Glo), HCT116 WT; assay type: cell-based; conditions: human; HCT116 WT cells, 7 days of treatment, CTG luminescence
Experimental: as §1, §2, §3, §4

Row | efflux ratio at 2 h, 1 μM (MDR1) | Papp A→B at 2 h, 1 µM [2] [×10⁻⁶ cm/s] | efflux ratio at 2 h, 1 μM (BCRP) | Structure (SMILES) | CC50 [1] [nM] | Selectivity [1] | CC50 at 7 days [3] [nM]
1 | 1.1 | 12.6 | 0.7 | C[C@H]1CN(C(=O)C(=O)Nc2cnc(N)c3c2cnn3C)[C@H]2c3ccc(C(F)(F)F)cc3C[C@H]2O1 [Example Ca-3, N-(7-amino-1-methyl-11H-pyrazolo[3,4-c]pyridin-4-yl)-2-((2S,4aS,9aR)-2-methyl-7-(trifluoromethyl)-2,3,9,9a-tetrahydroindeno[2,1-b][1,4]oxazin-4(4aH)-yl)-2-oxoacetamide] | 38 | 77 | 2940
2 | 1.8 | 15.3 | 1.6 | Cn1ncc2c(NC(=O)C(=O)N3CCC[C@@H]4Oc5cc(OC(F)F)c(F)cc5[C@@H]43)cnc(N)c21 (relative stereo) [Example Ca-9, cis-N-(7-amino-1-methyl-1H-pyrazolo[3,4-c]pyridin-4-yl)-2-(7-(difluoromethoxy)-8-fluoro-3,4,4a,9b-tetrahydrobenzofuro[3,2-b]pyridin-1(2H)-yl)-2-oxoacetamide] | 34 | 119 | 4100
3 | 0.8 | 12.2 | 0.7 | Cn1ncc2c(NC(=O)C(=O)N3CCC[C@@H]4Oc5cc(C(F)(F)F)ccc5[C@@H]43)cnc(N)c21 [Example Ca-2, N-(7-amino-1-methyl-11H-pyrazolo[3,4-c]pyridin-4-yl)-2-oxo-2-((4aS,9bS)-7-(trifluoromethyl)-3,4,4a,9b-tetrahydrobenzofuro[3,2-b]pyridin-1(2H)-yl)acetamide] | 12 | 78 | 935
4 | 1.4 | 10.7 | 1.3 | Cn1ncc2c(NC(=O)C(=O)N3CC[C@H]4C[C@@H]3c3c(F)cc(C(F)(F)F)cc3O4)cnc(N)c21 [Example Ca-11, N-(7-amino-1-methyl-1H-pyrazolo[3,4-c]pyridin-4-yl)-2-((2S,6R)-7-fluoro-9-(trifluoromethyl)-3,4-dihydro-2H-2,6-methanobenzo[b][1,5]oxazocin-5(6H)-yl)-2-oxoacetamide] | 18 | 115 | 2070
5 | 1 | 17.7 | 1.1 | C[C@@H]1CN(C(=O)C(=O)Nc2cnc(N)c3c2cnn3C)[C@H]2c3ccc(C(F)(F)F)cc3C[C@H]2O1 [Example Ca-10, N-(7-amino-1-methyl-1H-pyrazolo[3,4-c]pyridin-4-yl)-2-((2R,4aS,9aR)-2-methyl-7-(trifluoromethyl)-2,3,9,9a-tetrahydroindeno[2,1-b][1,4]oxazin-4(4aH)-yl)-2-oxoacetamide] | 28 | 96 | 2720
6 | – | 21.4 | 1.1 | Cn1ncc2c(NC(=O)C(=O)N3CCC[C@@H]4Oc5cc(Cl)ccc5[C@@H]43)cnc(N)c21 [Example Ca-7, N-(7-amino-1-methyl-1H-pyrazolo[3,4-c]pyridin-4-yl)-2-((4aS,9bS)-7-chloro-3,4,4a,9b-tetrahydrobenzofuro[3,2-b]pyridin-1(2H)-yl)-2-oxoacetamide] | 16 | 108 | 1700

The next lines start with the molecule.

Row | Structure (SMILES) | efflux ratio at 2 h, 1 μM (MDR1) | Papp A→B at 2 h, 1 µM [2] [×10⁻⁶ cm/s] | efflux ratio at 2 h, 1 μM (BCRP) | CC50 [1] [nM] | Selectivity [1] | CC50 at 7 days [3] [nM]
7 | C[C@@H]1C[C@@H]2Oc3nc(C(F)(F)F)ccc3[C@@H]2N(C(=O)C(=O)Nc2cnc(N)c3c2cnn3C)C1 [Example Ca-8, N-(7-amino-1-methyl-1H-pyrazolo[3,4-c]pyridin-4-yl)-2-((3R,4aS,9bS)-3-methyl-7-(trifluoromethyl)-3,4,4a,9b-tetrahydrofuro[2,3-b:4,5-b′]dipyridin-1(2H)-yl)-2-oxoacetamide] | 2.5 | 19.7 | 9 | 13 | 93 | 1200
8 | [2H]C([2H])([2H])n1ncc2c(NC(=O)C(=O)N3CCC[C@@H]4Oc5cc(C(F)(F)F)cc(F)c5[C@@H]43)cnc(N)c21 [Example Cb-1, N-(7-amino-1-(methyl-d3)-1H-pyrazolo[3,4-c]pyridin-4-yl)-2-((4aS,9bS)-9-fluoro-7-(trifluoromethyl)-3,4,4a,9b-tetrahydrobenzofuro[3,2-b]pyridin-1(2H)-yl)-2-oxoacetamide] | – | – | – | 12 | 99 | 1240
9 | Cn1ncc2c(NC(=O)C(=O)N3CC[C@H]4C[C@@H]3c3ccc(OC(F)(F)F)cc3O4)cnc(N)c21 [Example Ca-4, N-(7-amino-1-methyl-1H-pyrazolo[3,4-c]pyridin-4-yl)-2-oxo-2-((2S,6R)-9-(trifluoromethoxy)-3,4-dihydro-2H-2,6-methanobenzo[b][1,5]oxazocin-5(6H)-yl)acetamide] | 0.9 | 26 | 0.6 | 31 | 102 | 3200
10 | Nc1ncc(NC(=O)C(=O)N2CCC[C@@H]3Oc4cc(C(F)(F)F)ccc4[C@@H]32)c2c1COC2 [Example Cc-1, N-(4-amino-1,3-dihydrofuro[3,4-c]pyridin-7-yl)-2-oxo-2-((4aS,9bS)-7-(trifluoromethyl)-3,4,4a,9b-tetrahydrobenzofuro[3,2-b]pyridin-1(2H)-yl)acetamide] | – | – | – | 50 | 38 | 1940
11 | Nc1ncc(NC(=O)C(=O)N2CCC[C@@H]3Oc4cc(C(F)(F)F)cc(F)c4[C@@H]32)c2c1COC2 [Example Cc-2, N-(4-amino-1,3-dihydrofuro[3,4-c]pyridin-7-yl)-2-((4aS,9bS)-9-fluoro-7-(trifluoromethyl)-3,4,4a,9b-tetrahydrobenzofuro[3,2-b]pyridin-1(2H)-yl)-2-oxoacetamide] | – | – | – | 51 | 37 | 1910
